Source: patent publication US20250100996A1, “HETEROCYCLOALKYL AND HETEROARYL COMPOUNDS AND PHARMACEUTICAL COMPOSITIONS THAT MODULATE IKZF2” (Plexium, Inc., priority 2021, published 2025)

Assays:
[1] = biological target: T1, GSPT1 (Homo sapiens, UniProt P15170); experiment: GSPT1 reporter degradation assay (HEK293 hGSPT1 HiBiT-tagged cells); format: cell-based; details: 24 hour incubation
T1 construct: HiBiT-tagged cells were generated using CRISPR-Cas12a technology; endogenous in cells; host or cells: HEK293 (endogenous GSPT1 locus edited with HiBiT knock-in)
Method: HEK293_hGSPTl_HiBiT-tagged cells were generated using CRISPR-Cas12a technology. Briefly, ˜400,000 HEK293 cells were transiently co-transfected with precomplexed ribonuclear proteins (RNPs) consisting of 80 pmol of crRNA (IDT), 62 pmol of Cas12a protein (IDT), 3 μg of ssODN donor (IDT; Alt® modifications), 78 pmol of electroporation enhancer (IDT), and 200 ng of pMaxGFP (Lonza). The transfection was performed via nucleofection (Lonza, 4D-Nucleofector X-unit) using solution P3 and program CM-130 in a ([…]) cuvette. Five days post-nucleofection, cells were single-cell-sorted for GFP+(transfected) cells by FACs in 96-well plates and clonally selected. Clones were screened and verified for the desired modification via targeted deep sequencing using gene-specific primers with partial Illumina adapter overhangs as previously described. In brief, clonal cell pellets were harvested, lysed, and used to generate gene-specific amplicons with partial Illumina adapters in PCR #1. Amplicons were indexed in PCR #2 and pooled with other targeted amplicons for other loci to create sequence diversity. Additionally, 10% PhiX sequencing control V3 (Illumina) was added to the pooled amplicon library prior to running the sample on a Miseq Sequencer System (Illumina) to generate paired 2×250 bp reads. Samples were demultiplexed using the index sequences, fastq files were generated, and NGS analysis was performed using CRIS.py. Final clones were authenticated using the PowerPlex fusion system (Promega) and tested negative for mycoplasma by the MycoAlertTMPlus mycoplasma detection kit (Lonza).
Editing construct sequences and screening primers are outlined below (sequence from 5′ to 3′). hGSPT1Cas12acrRNA, CAGE635.GSPT1.g1: […]; CAGE635.g1.anti.ssODN: ttcctcacagtattgtgcagggtcatcaagaaaatgctta[…] CAGCCGCTCACgtcCttctctggaaccagtttcagaacttttccaattgcaatggtcttacctagaaatgaaattttaa (HiBiT tag and silent blocking modifications to prevent Cas12a recutting after integration are in upper case); CAGE635.hGSPT1.DS.F: […]; CAGE635.hGSPT1.DS.R: GTGAA GTAGGCTTCTGCAGTC.
The GSPT1 degradation assay was carried out by harvesting the HEK 293T reporter cell lines and resuspending the cells in media formulated for reduced background fluorescence (FluoroBrite; Thermo Fisher). The respective cell lines were seeded at a density of 8,000 cells/well into white-opaque 384-well optical grade assay tissue culture plates (Greiner 781080-20). The cells were incubated overnight at 37° C. to allow for attachment to the assay plate. Dilutions of the compounds were prepared in DMSO from 10 mM compound stocks. Test compounds were added in a 10-point dilution series (typically 10 μM to 100 pM) using a TECAN D300e Digital Dispenser with an upper limit of 0.5% final DMSO. Plates were centrifuged at 320×g for 2 minutes at room temperature, and subsequently incubated at 37° C.
After 24 hour incubation with the compounds, the plates were allowed to cool to room temperature for 10 minutes. 30 μL of HiBiT lytic buffer+1:50 HiBiT substrate Solution were added to each well. Plates were centrifuged at 320×g for 2 minutes at room temperature and then incubated with shaking at room temperature for 10 minutes covered with foil. Plates were read on a CLARIOstar microplate reader (BMG LabTech), measuring at 450 nm (donor emission) and 610 nm or 630 nm (acceptor emission). The DC50 values were determined by regression to best fit four-parameter logistic curves using GraphPad Prism.

[2] = biological target: T2, human E3 ligase component cereblon (CRBN) (Homo sapiens, UniProt Q96SW2); experiment: Cereblon (CRBN) target engagement, NanoBRET TE Intracellular E3 Ligase Assay in transfected HEK-293T cells; details: read-out: CRBN Binding EC50
T2 construct: host or cells: HEK293T
Method in brief: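 HEK-293T cells transiently co-transfected with NanoLuc-CRBN (N-terminal NanoLuc) and DDB1 were dosed with CRBN tracer and an 11-point compound series (typically 10 μM to 100 pM) for 2 h at 37° C. BRET at 450/610 nm gave IC50 by four-parameter logistic fit.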

[3] = biological target: T3, IKZF1 (Ikaros) (Homo sapiens, UniProt Q13422); experiment: IKZF1 reporter degradation assay (HEK 293T IKZF1-mNeonGreen reporter cell line); format: cell-based; details: HEK 293T IKZF1-mNeonGreen reporter, 24 hours incubation
T3 construct: mScarlet (behind P2A) (C, cleaved yes); expressed in transfected cells
Method in brief: (§1)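 Clonal HEK 293T lines stably expressing the IKZF-(GGGGS)3-mNeonGreen-P2A-mScarlet reporter were treated with compound for 24 h at 37 °C (≤0.5% DMSO, quadruplicate). Live imaging scored percent mNeonGreen-positive cells, with mScarlet used for segmentation. DC50 came from four-parameter logistic fits.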

[4] = biological target: T4, IKZF2 (Helios) (Homo sapiens, UniProt Q96SW2+Q9UKS7); experiment: IKZF2 reporter degradation assay (HEK 293T IKZF2-mNeonGreen reporter cell line); format: cell-based; details: HEK-293T, 24 h, @ 1 μM, HEK 293T IKZF2-mNeonGreen reporter, 24 hours incubation
T4 construct: Leu-Asp junction (codons ctcgac before the linker); mScarlet (behind P2A) (C, cleaved yes); expressed in transfected cells
Method in brief: as §1

[5] = biological target: T5, IKZF2 (Helios) (Homo sapiens, UniProt Q9UKS7); experiment: as above; format: cell-based; details: HEK 293T IKZF2-mNeonGreen reporter, 24 hours incubation
T5 construct: Leu-Asp junction (codons ctcgac before the linker); mScarlet (behind P2A) (C, cleaved yes); expressed in transfected cells
Method in brief: as §1

[6] = biological target: T6, IKZF3 (Aiolos) (Homo sapiens, UniProt Q9UKT9); experiment: IKZF3 reporter degradation assay (HEK 293T IKZF3-mNeonGreen reporter cell line); format: cell-based; details: HEK 293T IKZF3-mNeonGreen reporter, 24 hours incubation
T6 construct: Leu-Asp junction (codons ctcgac before the linker); mScarlet (behind P2A) (C, cleaved yes); expressed in transfected cells
Method in brief: as §1

T5 sequence (Q9UKS7 whole entry): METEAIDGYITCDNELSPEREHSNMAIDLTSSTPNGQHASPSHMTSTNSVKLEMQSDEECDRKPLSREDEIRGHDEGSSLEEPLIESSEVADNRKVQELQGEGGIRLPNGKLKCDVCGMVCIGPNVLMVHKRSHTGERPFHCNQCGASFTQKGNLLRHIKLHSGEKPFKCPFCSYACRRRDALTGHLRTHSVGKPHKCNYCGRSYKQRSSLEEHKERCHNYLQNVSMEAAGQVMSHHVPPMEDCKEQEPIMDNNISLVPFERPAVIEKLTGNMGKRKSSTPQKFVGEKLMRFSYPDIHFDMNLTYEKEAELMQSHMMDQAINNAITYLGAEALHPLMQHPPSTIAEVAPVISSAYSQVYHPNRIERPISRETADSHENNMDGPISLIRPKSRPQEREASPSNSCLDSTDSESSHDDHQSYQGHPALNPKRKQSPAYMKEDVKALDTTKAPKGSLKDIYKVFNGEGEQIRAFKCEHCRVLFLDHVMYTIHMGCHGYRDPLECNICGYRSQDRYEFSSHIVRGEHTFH
T5 sequence (Q96SW2 whole entry, further chain): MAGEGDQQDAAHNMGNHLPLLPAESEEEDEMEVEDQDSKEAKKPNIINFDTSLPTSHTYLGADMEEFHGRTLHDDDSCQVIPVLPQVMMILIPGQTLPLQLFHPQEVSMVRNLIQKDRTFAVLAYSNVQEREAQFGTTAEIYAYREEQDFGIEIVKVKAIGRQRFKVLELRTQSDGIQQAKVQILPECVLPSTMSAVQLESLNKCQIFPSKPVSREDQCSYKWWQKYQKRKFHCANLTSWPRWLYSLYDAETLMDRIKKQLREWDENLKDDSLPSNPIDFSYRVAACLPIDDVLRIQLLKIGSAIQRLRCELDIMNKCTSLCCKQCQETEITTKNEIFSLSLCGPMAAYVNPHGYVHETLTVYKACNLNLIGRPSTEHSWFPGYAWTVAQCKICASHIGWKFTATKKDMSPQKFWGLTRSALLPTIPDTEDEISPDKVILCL
T5 sequence (Q16531 whole entry partner): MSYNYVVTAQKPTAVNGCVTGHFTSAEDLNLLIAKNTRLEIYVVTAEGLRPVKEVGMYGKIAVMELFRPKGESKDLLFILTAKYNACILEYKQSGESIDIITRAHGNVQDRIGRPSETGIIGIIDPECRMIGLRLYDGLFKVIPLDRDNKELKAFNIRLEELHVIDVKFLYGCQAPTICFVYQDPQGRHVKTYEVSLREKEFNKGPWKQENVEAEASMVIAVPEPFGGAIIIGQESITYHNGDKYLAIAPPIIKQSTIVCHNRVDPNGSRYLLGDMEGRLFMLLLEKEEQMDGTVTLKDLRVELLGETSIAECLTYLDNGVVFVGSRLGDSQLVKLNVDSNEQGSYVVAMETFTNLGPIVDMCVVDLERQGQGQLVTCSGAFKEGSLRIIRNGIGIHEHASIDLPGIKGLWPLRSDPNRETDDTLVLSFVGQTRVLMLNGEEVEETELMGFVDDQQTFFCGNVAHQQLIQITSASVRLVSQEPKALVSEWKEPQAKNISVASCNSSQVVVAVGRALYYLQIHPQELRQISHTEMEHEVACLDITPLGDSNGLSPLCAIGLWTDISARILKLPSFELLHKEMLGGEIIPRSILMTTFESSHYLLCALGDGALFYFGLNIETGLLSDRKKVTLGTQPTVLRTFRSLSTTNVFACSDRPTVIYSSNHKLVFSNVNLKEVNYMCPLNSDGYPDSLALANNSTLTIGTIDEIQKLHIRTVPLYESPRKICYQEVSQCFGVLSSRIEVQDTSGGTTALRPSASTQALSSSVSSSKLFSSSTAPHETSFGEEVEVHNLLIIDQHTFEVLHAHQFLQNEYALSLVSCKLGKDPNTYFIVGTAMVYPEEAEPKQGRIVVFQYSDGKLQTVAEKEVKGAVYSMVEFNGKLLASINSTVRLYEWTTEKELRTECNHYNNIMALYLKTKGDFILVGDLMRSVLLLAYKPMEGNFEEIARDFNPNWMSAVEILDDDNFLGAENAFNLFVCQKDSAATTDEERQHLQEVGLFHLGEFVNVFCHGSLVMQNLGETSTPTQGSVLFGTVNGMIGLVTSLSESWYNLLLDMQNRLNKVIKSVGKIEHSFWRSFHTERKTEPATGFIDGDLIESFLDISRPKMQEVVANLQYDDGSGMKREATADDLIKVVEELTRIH
T4 sequence (Q9UKS7 whole entry): as the sequence (Q9UKS7 whole entry) above
T4 sequence (Q96SW2 whole entry): as the sequence (Q96SW2 whole entry, further chain) above
T4 sequence (Q16531 whole entry partner): as the sequence (Q16531 whole entry partner) above
T6 sequence (Q96SW2 whole entry partner): as the sequence (Q96SW2 whole entry, further chain) above
T6 sequence (Q16531 whole entry partner): as the sequence (Q16531 whole entry partner) above
T6 sequence (Q9UKT9 whole entry): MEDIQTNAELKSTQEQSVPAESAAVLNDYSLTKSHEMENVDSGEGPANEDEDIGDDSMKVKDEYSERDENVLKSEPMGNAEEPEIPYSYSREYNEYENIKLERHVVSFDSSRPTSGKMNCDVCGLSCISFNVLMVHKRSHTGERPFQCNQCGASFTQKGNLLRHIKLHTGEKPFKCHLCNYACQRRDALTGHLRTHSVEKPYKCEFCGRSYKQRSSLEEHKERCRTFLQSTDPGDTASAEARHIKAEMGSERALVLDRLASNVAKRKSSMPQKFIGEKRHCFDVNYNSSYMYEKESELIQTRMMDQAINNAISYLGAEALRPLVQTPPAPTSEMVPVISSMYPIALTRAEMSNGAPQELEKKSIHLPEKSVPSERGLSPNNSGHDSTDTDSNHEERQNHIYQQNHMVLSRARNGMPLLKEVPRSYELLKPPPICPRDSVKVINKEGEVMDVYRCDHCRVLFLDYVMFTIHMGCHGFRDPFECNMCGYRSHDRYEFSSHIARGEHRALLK
T3 sequence (Q96SW2 whole entry partner): as the sequence (Q96SW2 whole entry, further chain) above
T3 sequence (Q16531 whole entry partner): as the sequence (Q16531 whole entry partner) above
T3 sequence (Q13422 whole entry): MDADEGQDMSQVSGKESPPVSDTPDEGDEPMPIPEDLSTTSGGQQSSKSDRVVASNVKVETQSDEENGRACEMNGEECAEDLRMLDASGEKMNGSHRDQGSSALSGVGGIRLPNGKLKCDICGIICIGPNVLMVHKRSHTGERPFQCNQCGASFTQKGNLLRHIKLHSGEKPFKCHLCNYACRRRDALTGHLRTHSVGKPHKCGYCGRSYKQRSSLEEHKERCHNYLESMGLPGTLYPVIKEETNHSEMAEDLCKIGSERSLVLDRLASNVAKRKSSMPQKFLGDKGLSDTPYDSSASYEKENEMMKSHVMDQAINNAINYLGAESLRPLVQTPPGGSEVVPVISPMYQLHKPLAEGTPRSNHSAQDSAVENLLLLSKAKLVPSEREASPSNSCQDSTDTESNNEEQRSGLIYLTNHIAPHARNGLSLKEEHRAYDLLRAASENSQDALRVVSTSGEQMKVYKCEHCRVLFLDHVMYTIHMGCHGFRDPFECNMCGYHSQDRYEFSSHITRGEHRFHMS
T2 sequence (Q96SW2 whole entry): as the sequence (Q96SW2 whole entry, further chain) above
T2 sequence (Q16531 whole entry partner): as the sequence (Q16531 whole entry partner) above
T1 sequence (Q96SW2 whole entry partner): as the sequence (Q96SW2 whole entry, further chain) above
T1 sequence (Q16531 whole entry partner): as the sequence (Q16531 whole entry partner) above
T1 sequence (P15170 whole entry): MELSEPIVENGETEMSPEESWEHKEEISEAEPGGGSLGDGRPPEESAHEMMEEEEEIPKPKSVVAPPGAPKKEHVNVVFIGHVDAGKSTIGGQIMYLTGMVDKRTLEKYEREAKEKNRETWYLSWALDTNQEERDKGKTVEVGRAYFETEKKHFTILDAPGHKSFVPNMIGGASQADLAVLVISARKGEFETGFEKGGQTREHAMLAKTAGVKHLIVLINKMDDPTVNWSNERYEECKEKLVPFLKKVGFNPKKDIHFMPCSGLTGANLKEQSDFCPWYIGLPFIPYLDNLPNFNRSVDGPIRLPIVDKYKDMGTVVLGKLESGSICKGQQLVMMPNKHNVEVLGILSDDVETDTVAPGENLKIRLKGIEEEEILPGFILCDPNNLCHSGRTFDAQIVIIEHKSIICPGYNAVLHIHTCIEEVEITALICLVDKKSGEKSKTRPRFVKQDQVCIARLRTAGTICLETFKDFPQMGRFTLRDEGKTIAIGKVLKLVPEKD

O=C1CCC(N2Cc3cc(OC4CCCCC4N4CC(C(=O)N5CCCCC5)C4)ccc3C2=O)C(=O)N1 (single isomer, unassigned) [Compound 23-A, 3-(1-oxo-5-((2-(3-(piperidine-1-carbonyl)azetidin-1-yl)cyclohexyl)oxy)isoindolin-2-yl)piperidine-2,6-dione]
DC50 [1]: > 30 µM

Cc1cnc(C2CN([C@H]3CCCC3Oc3ccc4c(c3)CN(C3CCC(=O)NC3=O)C4=O)C2)o1 (mixture of isomers) [Compound 151-B, Rac-3-(5-(((trans)-2-(3-(5-methyloxazol-2-yl)azetidin-1-yl)cyclopentyl)oxy)-1-oxoisoindolin-2-yl)piperidine-2,6-dione]
DC50 [1]: > 30 µM | EC50 [2]: 0.079 µM

Cc1cnc(C2CN([C@H]3CCCC3Oc3ccc4c(c3)CN(C3CCC(=O)NC3=O)C4=O)C2)o1 (mixture of isomers) [Compound 161-B, Rac-3-(5-(((cis)-2-(3-(5-methyloxazol-2-yl)azetidin-1-yl)cyclopentyl)oxy)-1-oxoisoindolin-2-yl)piperidine-2,6-dione]
DC50 [3]: > 30 µM | inhibition at 1 µM [4]: 49.7% | DC50 [5]: 0.138 µM | EC50 [2]: 0.12 µM | DC50 [6]: > 30 µM

COc1cc(C2CN(C3CCCC3Oc3ccc4c(c3)CN(C3CCC(=O)NC3=O)C4=O)C2)ccn1 (stereo not shown) [Compound 170-B, 3-(5-((2-(3-(2-methoxypyridin-4-yl)azetidin-1-yl)cyclopentyl)oxy)-1-oxoisoindolin-2-yl)piperidine-2,6-dione]
DC50 [3]: > 30 µM | inhibition at 1 µM [4]: 54.6% | DC50 [5]: 0.066 µM | EC50 [2]: 0.109 µM | DC50 [6]: > 30 µM

O=C1CCC(N2Cc3cc(O[C@H]4CCCC[C@@H]4N4CC(c5ccncc5Cl)C4)ccc3C2=O)C(=O)N1 (mixture of isomers) [Compound 173-B, Rac-3-(5-(((trans)-2-(3-(3-chloropyridin-4-yl)azetidin-1-yl)cyclohexyl)oxy)-1-oxoisoindolin-2-yl)piperidine-2,6-dione]
DC50 [3]: > 30 µM | inhibition at 1 µM [4]: 66.7% | DC50 [5]: 0.031 µM | EC50 [2]: 0.052 µM | DC50 [6]: > 30 µM

O=C1CCC(N2Cc3cc(O[C@H]4CCCC[C@@H]4N4CC(c5ccc6c(c5)OCCO6)C4)ccc3C2=O)C(=O)N1 (stereo partly drawn) [Compound 58-A, 3-(5-(((1S,2S)-2-(3-(2,3-dihydrobenzo[b][1,4]dioxin-6-yl)azetidin-1-yl)cyclohexyl)oxy)-1-oxoisoindolin-2-yl)piperidine-2,6-dione]
DC50 [3]: > 30 µM | inhibition at 1 µM [4]: 64.5% | DC50 [5]: 0.005 µM | EC50 [2]: 0.003 µM | DC50 [6]: > 30 µM

O=C1CCC(N2Cc3cc(OC4CCC[C@@H]4N4CC(c5ccccn5)C4)ccc3C2=O)C(=O)N1 (mixture of isomers) [Compound 209-B, Rac-3-(1-oxo-5-(((cis)-2-(3-(pyridin-2-yl)azetidin-1-yl)cyclopentyl)oxy)isoindolin-2-yl)piperidine-2,6-dione]
DC50 [3]: > 30 µM | inhibition at 1 µM [4]: 38.9% | DC50 [5]: 0.23 µM | EC50 [2]: 0.058 µM | DC50 [6]: > 30 µM

O=C1CCC(N2Cc3cc(OC4CCCCC4N4CC(c5cncnc5)C4)ccc3C2=O)C(=O)N1 (stereo not shown) [Compound 212-B, 3-(1-oxo-5-((2-(3-(pyrimidin-5-yl)azetidin-1-yl)cyclohexyl)oxy)isoindolin-2-yl)piperidine-2,6-dione]
DC50 [3]: > 30 µM | inhibition at 1 µM [4]: 20.3% | DC50 [5]: 0.425 µM | EC50 [2]: 0.057 µM | DC50 [6]: > 30 µM

O=C1CCC(N2Cc3cc(OC4CCCC4N4CC(c5cnc6ccccc6n5)C4)ccc3C2=O)C(=O)N1 (stereo not shown) [Compound 203-B, 3-(1-oxo-5-((2-(3-(quinoxalin-2-yl)azetidin-1-yl)cyclopentyl)oxy)isoindolin-2-yl)piperidine-2,6-dione]
DC50 [3]: > 30 µM | inhibition at 1 µM [4]: 25.1% | DC50 [5]: 0.13 µM | EC50 [2]: 0.02 µM | DC50 [6]: > 30 µM

O=C1CCC(N2Cc3cc(OC4CCC[C@@H]4N4CC(c5ccncc5)C4)ccc3C2=O)C(=O)N1 (mixture of isomers) [Compound 205-B, Rac-3-(1-oxo-5-(((cis)-2-(3-(pyridin-4-yl)azetidin-1-yl)cyclopentyl)oxy)isoindolin-2-yl)piperidine-2,6-dione]
DC50 [3]: > 30 µM | inhibition at 1 µM [4]: 40.6% | DC50 [5]: 0.219 µM | EC50 [2]: 0.046 µM | DC50 [6]: > 30 µM

O=C1CCC(N2Cc3cc(O[C@@H]4CCCC[C@@H]4N4CC(c5ncc(C(F)(F)F)cn5)C4)ccc3C2=O)C(=O)N1 (mixture of isomers) [Compound 186-B, Rac-3-(1-oxo-5-(((cis)-2-(3-(5-(trifluoromethyl)pyrimidin-2-yl)azetidin-1-yl)cyclohexyl)oxy)isoindolin-2-yl)piperidine-2,6-dione]
DC50 [3]: > 30 µM | inhibition at 1 µM [4]: 79.7% | DC50 [5]: 0.005 µM | EC50 [2]: 0.006 µM | DC50 [6]: > 30 µM

COc1ccc(C2CN([C@H]3CCCC3Oc3ccc4c(c3)CN(C3CCC(=O)NC3=O)C4=O)C2)cn1 (mixture of isomers) [Compound 201-B, Rac-3-(5-(((cis)-2-(3-(6-methoxypyridin-3-yl)azetidin-1-yl)cyclopentyl)oxy)-1-oxoisoindolin-2-yl)piperidine-2,6-dione]
DC50 [3]: > 30 µM | inhibition at 1 µM [4]: 62.7% | DC50 [5]: 0.078 µM | EC50 [2]: 0.036 µM | DC50 [6]: > 30 µM

Cc1cnc(C2CN([C@H]3CCCC[C@H]3Oc3ccc4c(c3)CN(C3CCC(=O)NC3=O)C4=O)C2)nc1 (mixture of isomers) [Compound 184-B, Rac-3-(5-(((cis)-2-(3-(5-methylpyrimidin-2-yl)azetidin-1-yl)cyclohexyl)oxy)-1-oxoisoindolin-2-yl)piperidine-2,6-dione]
DC50 [3]: > 30 µM | inhibition at 1 µM [4]: 79.6% | DC50 [5]: 0.021 µM | EC50 [2]: 0.017 µM | DC50 [6]: > 30 µM
